# pIC50: −log10 of the molar value. Read-outs that look alike come from different tables or passages of the source. Where a SMILES comes first, the peptide text is derived from it.
# Columns and labels:
# HLA-B*4402 = HLA-B*4402 (Homo sapiens, UniProt P01889, A223V/A65T/A93T/A95T/D201E/D98Y/E176V/E187L/E204Q/E69K/G107R/H137Y/K202T/L105A/L119I/N104T/N87E/Q56L/Q94N/R106L/R155S/R180D/S101N/S121R/S35A/S48T/T118I/V36M/W191S/Y140D/Y91S); test: In vitro class I HLA binding assay (fluorescence polarization competition); details: allele B*4402; for IC50 / IC50 (nM), in vitro HLA binding affinity: fluorescence polarization competition; for IC50: read-out: IC50 (nM), in vitro HLA binding affinity; for pIC50: read-out: IC50
# Procedure, shortened: (§1)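 Cell-free competition assay: HLA heat-treated 53°C for 15 min to strip endogenous peptides, then mixed with fluorescent high-affinity control peptide and test peptides for 72 h to equilibrium. Displacement read by fluorescence polarization as percent inhibition; IC50 derived from a concentration range.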
# HLA-A*0301 = HLA-A*0301 (Homo sapiens, UniProt P04439); test: biochemical; assay type: binding; details: allele A*0301; fluorescence polarization competition; read-out: IC50 (nM), in vitro HLA binding affinity
# Procedure, shortened: as §1
# HLA-DRB1*0301 = HLA-DRB1*0301 (Homo sapiens, UniProt P01903+P01911, A100K/A102G/A103R/A169T/F55Y/I96L/K41T/L162R/M171V/P40S/Q125H/Q178H/Q39Y/R42S/S66N/T106N/T262R/W38E/Y61H); test: biochemical; assay type: binding; details: binding inhibition assay; NB = non-binder (no dose-dependent inhibition); read-out: DRB1*0303 IC50
# HLA-DRB1*0101 = target: T1, HLA-DRB1*0101 (Homo sapiens, UniProt P01903+P01911, A100R/D57E/F55L/F60I/F76Y/I96L/L162R/M171V/P40L/Q125E/R42F/V115G/Y59C); test: biochemical; assay type: binding; details: binding inhibition assay; NB = non-binder (no dose-dependent inhibition); read-out: DRB1*0101 IC50
# T1 construct: purchased
# Procedure, shortened: (§2)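 HLA-peptide complexes are captured with anti-HLA-DR antibody, and bound reference is quantified by europium-probe time-resolved fluorescence.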
# HLA-DRB1*0701 = HLA-DRB1*0701 (Homo sapiens, UniProt P01903+P01911, A100R/A102G/A103Q/D57E/D86V/E43K/F76Y/K127E/L162R/M171V/P40G/Q125H/Q99D/R33Q/R42Y/R54Q/S133A/S66F/T210M/V115G/Y107V/Y59L/Y89S); test: biochemical; assay type: binding; details: binding inhibition assay; NB = non-binder (no dose-dependent inhibition); read-out: DRB1*0701 IC50
# Procedure, shortened: as §2
# HLA-DRB1*1301 = HLA-DRB1*1301 (Homo sapiens, UniProt P01903+P01911, A100E/A169T/K41T/L162R/M171V/P40S/Q125H/Q178H/Q39Y/Q99D/R42S/S66N/T262R/W38E/Y61H); test: biochemical; assay type: binding; details: binding inhibition assay; NB = non-binder (no dose-dependent inhibition); read-out: DRB1*1301 IC50
# Procedure, shortened: as §2
# HLA-DRB1*1501 = target: T2, HLA-DRB1*1501 (Homo sapiens, UniProt P01903+P01911); test: biochemical; assay type: binding; details: binding inhibition assay; NB = non-binder (no dose-dependent inhibition); read-out: DRB1*1501 IC50
# T2 construct: purchased
# Procedure, shortened: as §2
# HLA-DRB1*0801 = HLA-DRB1*0801 (Homo sapiens, UniProt P01903+P01911, A100R/A103L/A169T/D86S/F76Y/H45Y/I96F/K41T/L162R/M171V/P40S/Q125H/Q178H/Q39Y/Q99D/R218S/R42G/S66Y/V115G/W38E); test: biochemical; assay type: binding; details: binding inhibition assay; NB = non-binder (no dose-dependent inhibition); read-out: DRB1*0801 IC50
# Procedure, shortened: as §2
# HLA-A*0101 = HLA-A*0101 (Homo sapiens, UniProt P04439, A114D/A174V/A182V/D101N/D185E/E176A/E190D/L180R/Q94H/R68K/S129P/T187R/V100A/V91M/W191G); test: biochemical; assay type: binding; details: allele A*0101; fluorescence polarization competition
# Procedure, shortened: as §1
# [1] = cell-free competition, fluorescence polarization at 72 hours, Non-binder = no dose-dependent inhibition
# Chain of HLA-DRB1*0301 (P01903 26-254 limits assumed, other chains not shown): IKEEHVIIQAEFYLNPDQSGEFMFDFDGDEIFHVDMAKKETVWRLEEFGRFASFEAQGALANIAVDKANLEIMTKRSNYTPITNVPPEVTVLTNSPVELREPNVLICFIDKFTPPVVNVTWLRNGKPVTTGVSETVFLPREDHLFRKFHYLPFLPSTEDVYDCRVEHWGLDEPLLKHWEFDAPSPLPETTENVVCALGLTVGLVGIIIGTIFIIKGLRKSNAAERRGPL
molecule,measurement,setting,value
CC(C)C[C@H](NC(=O)[C@H](CO)NC(=O)[C@H](CS)NC(=O)[C@@H]1CCCN1C(=O)[C@H](Cc1ccccc1)NC(=O)[C@H](CC(N)=O)NC(=O)[C@H](CC(N)=O)NC(=O)[C@H](CCC(=O)O)NC(=O)[C@@H](N)C(C)C)C(=O)N[C@@H](Cc1ccc(O)cc1)C(=O)O [AMA1_437] (H-VENNFPCSLY-OH),IC50,HLA-B*4402,6020 nM
same,IC50,HLA-A*0301,85400 nM
CC[C@H](C)[C@H](NC(=O)[C@H](CC(=O)O)NC(=O)[C@H](CCC(=O)O)NC(=O)[C@H](Cc1ccc(O)cc1)NC(C)=O)C(=O)N[C@H](C(=O)N[C@@H](CC(C)C)C(=O)N[C@@H](CCCCN)C(=O)N[C@@H](CO)C(=O)N[C@@H](Cc1c[nH]cn1)C(=O)N[C@@H](CCSC)C(=O)N[C@@H](CC(N)=O)C(=O)N[C@@H](CCCNC(=N)N)C(=O)N[C@@H](CCC(=O)O)C(=O)N[C@@H](CO)C(=O)N[C@@H](CC(=O)O)C(=O)N[C@@H](CC(=O)O)C(N)=O)C(C)C [EBA175_015] (Ac-YEDIVLKSHMNRESDD-NH2),pIC50,HLA-DRB1*0301,< 4.00
same,pIC50,HLA-DRB1*0101,4.70
same,pIC50,HLA-DRB1*0701,< 4.00
same,pIC50,HLA-DRB1*1301,5.31
same,pIC50,HLA-DRB1*1501,4.44
CC[C@H](C)[C@H](NC(=O)[C@H](CC(N)=O)NC(=O)[C@H](CC(N)=O)NC(=O)[C@H](Cc1ccccc1)NC(=O)[C@H](CC(N)=O)NC(=O)[C@H](CC(N)=O)NC(=O)[C@H](CC(N)=O)NC(=O)[C@H](CC(N)=O)NC(=O)[C@H](CO)NC(=O)[C@H](CCCNC(=N)N)NC(C)=O)C(=O)N1CCC[C@H]1C(=O)N[C@@H](CO)C(=O)N[C@@H](CCCNC(=N)N)C(=O)N[C@@H](Cc1ccc(O)cc1)C(=O)N[C@@H](CC(N)=O)C(=O)N[C@@H](CC(C)C)C(=O)N[C@@H](Cc1ccc(O)cc1)C(=O)N[C@@H](CC(=O)O)C(N)=O [EBA175_017B] (Ac-RSNNNNFNNIPSRYNLYD-NH2),pIC50,HLA-DRB1*0301,< 4.00
same,pIC50,HLA-DRB1*0101,6.37
same,pIC50,HLA-DRB1*1301,< 4.00
same,pIC50,HLA-DRB1*1501,4.63
CC(C)C[C@H](NC(=O)[C@@H](NC(=O)[C@H](Cc1c[nH]cn1)NC(=O)[C@H](Cc1c[nH]c2ccccc12)NC(=O)[C@H](CCC(=O)O)NC(=O)[C@@H](N)Cc1ccccc1)[C@@H](C)O)C(=O)N[C@@H](CO)C(=O)N[C@@H](CCCCN)C(=O)N[C@@H](CCC(=O)O)C(=O)N[C@@H](Cc1ccc(O)cc1)C(=O)O [EBA175_0375] (H-FEWHTLSKEY-OH),pIC50,HLA-B*4402; [1],4.72
CC[C@H](C)[C@H](NC(=O)[C@H](CC(=O)O)NC(=O)[C@@H](NC(=O)[C@H](Cc1c[nH]cn1)NC(=O)[C@H](CO)NC(=O)[C@H](CC(C)C)NC(=O)[C@H](CCCNC(=N)N)NC(=O)[C@H](CCC(=O)O)NC(=O)[C@H](CCC(=O)O)NC(=O)[C@@H](N)CCC(=O)O)[C@@H](C)O)C(=O)O [EBA175_1211] (H-EEERLSHTDI-OH),pIC50,HLA-B*4402; [1],4.72
CC[C@H](C)[C@H](NC(=O)[C@H](CCCNC(=N)N)NC(=O)[C@H](CC(N)=O)NC(=O)[C@H](Cc1ccccc1)NC(=O)[C@@H](NC(=O)[C@H](Cc1c[nH]cn1)NC(=O)[C@H](CCCCN)NC(=O)[C@H](CCSC)NC(=O)[C@H](CCC(=O)O)NC(=O)[C@@H](N)CCCCN)[C@@H](C)CC)C(=O)O [RH5_415] (H-KEMKHIFNRI-OH),IC50,HLA-B*4402,39200 nM
CC[C@H](C)[C@H](NC(=O)[C@H](Cc1ccc(O)cc1)NC(=O)[C@@H]1CCCN1C(=O)[C@H](CC(N)=O)NC(=O)[C@H](CC(=O)O)NC(C)=O)C(=O)N[C@@H](CO)C(=O)N[C@@H](CCCCN)C(=O)N[C@@H](Cc1ccc(O)cc1)C(=O)NCC(=O)N[C@@H](CC(N)=O)C(=O)N[C@@H](CCCCN)C(=O)N[C@@H](CC(C)C)C(=O)N[C@@H](CS)C(=O)N[C@@H](CCC(=O)O)C(=O)N[C@@H](CCCNC(=N)N)C(N)=O [RIPR_014] (Ac-DNPYISKYGNKLCER-NH2),pIC50,HLA-DRB1*0301,< 4.00
same,pIC50,HLA-DRB1*0101,7.04
same,pIC50,HLA-DRB1*0701,< 4.00
same,pIC50,HLA-DRB1*0801,4.02
same,pIC50,HLA-DRB1*1501,7.60
CC[C@H](C)[C@H](NC(=O)[C@H](CCC(=O)O)NC(=O)[C@@H](N)CC(N)=O)C(=O)N[C@@H](CC(=O)O)C(=O)N[C@@H](CCCCN)C(=O)N[C@@H](CC(C)C)C(=O)N[C@H](C(=O)N[C@@H](Cc1ccccc1)C(=O)N[C@@H](CO)C(=O)N[C@@H](CC(C)C)C(=O)O)[C@@H](C)O [RIPR_0031] (H-NEIDKLTFSL-OH),IC50,HLA-B*4402,332000 nM
CC(C)C[C@H](NC(=O)[C@H](Cc1ccc(O)cc1)NC(=O)[C@H](Cc1c[nH]cn1)NC(=O)[C@@H](NC(=O)[C@H](CC(C)C)NC(=O)[C@H](CO)NC(=O)[C@H](CCCCN)NC(=O)[C@H](CC(N)=O)NC(=O)[C@H](CCC(=O)O)NC(=O)[C@@H](N)Cc1ccc(O)cc1)[C@@H](C)O)C(=O)O [RIPR_0226] (H-YENKSLTHYL-OH),IC50,HLA-B*4402,112000 nM
CC[C@H](C)[C@H](NC(=O)[C@H](CC(=O)O)NC(=O)[C@H](CCC(N)=O)NC(=O)[C@@H](NC(=O)[C@H](CS)NC(=O)[C@H](CCCNC(=N)N)NC(=O)[C@H](Cc1ccc(O)cc1)NC(=O)[C@H](CC(N)=O)NC(=O)[C@H](CCC(=O)O)NC(=O)[C@@H](N)CCC(=O)O)[C@@H](C)O)C(=O)O [RIPR_0283] (H-EENYRCTQDI-OH),IC50,HLA-B*4402,674000 nM
CC(C)C[C@H](NC(=O)[C@H](CC(N)=O)NC(=O)[C@H](CC(N)=O)NC(=O)[C@H](CCCCN)NC(=O)[C@H](Cc1ccc(O)cc1)NC(=O)[C@H](Cc1ccccc1)NC(=O)[C@H](CCCCN)NC(=O)[C@H](CCC(=O)O)NC(=O)[C@@H](N)CCCCN)C(=O)N[C@@H](Cc1ccc(O)cc1)C(=O)O [RIPR_0378] (H-KEKFYKNNLY-OH),IC50,HLA-B*4402,919000 nM
DEYIHKLIL [RH5_361],"IC50 (nM), in vitro HLA binding affinity",HLA-B*4402,Non-binder
EEKDDIKNG [RH5_049],"IC50 (nM), in vitro HLA binding affinity",HLA-B*4402,Non-binder
KDLSDMTNI [RH5_378],"IC50 (nM), in vitro HLA binding affinity",HLA-B*4402,Non-binder
KEIDNDKENI [RH5_062],"IC50 (nM), in vitro HLA binding affinity",HLA-B*4402,Non-binder
KEKHLNNIF [RH5_486],"IC50 (nM), in vitro HLA binding affinity",HLA-B*4402,Non-binder
NDVPIKMEYF [RH5_506],"IC50 (nM), in vitro HLA binding affinity",HLA-B*4402,Non-binder
NEKNDVKNN [RH5_123],"IC50 (nM), in vitro HLA binding affinity",HLA-B*4402,Non-binder
NENNENNFL [EBA175_1454],IC50 (nM),HLA-B*4402; [1],Non-binder
NEYSLFITS [RH5_464],"IC50 (nM), in vitro HLA binding affinity",HLA-B*4402,Non-binder
SECDIGLIY [RIPR_0611],"IC50 (nM), in vitro HLA binding affinity",HLA-B*4402,Non-binder
same,"IC50 (nM), in vitro HLA binding affinity",HLA-A*0101,Non-binder

# Source: publication PMC8294059, “Identification and Immune Assessment of T Cell Epitopes in Five Plasmodium falciparum Blood Stage Antigens to Facilitate Vaccine Candidate Selection and Optimization” (Frontiers in Immunology, 2021)
